Experiments:
[1] = target: T1, C5a receptor (Mus musculus, UniProt P30993); assay: Reverse Passive Arthus Reaction model, immune complex peritonitis; format: in vivo, mice; conditions: intraperitoneal injection of 1 mg/kg as a liquid formulation
T1 construct: from tissue; host or cells: live mice (peritoneal neutrophil chemotaxis, in vivo)
T1 sequence (P30993 1-351): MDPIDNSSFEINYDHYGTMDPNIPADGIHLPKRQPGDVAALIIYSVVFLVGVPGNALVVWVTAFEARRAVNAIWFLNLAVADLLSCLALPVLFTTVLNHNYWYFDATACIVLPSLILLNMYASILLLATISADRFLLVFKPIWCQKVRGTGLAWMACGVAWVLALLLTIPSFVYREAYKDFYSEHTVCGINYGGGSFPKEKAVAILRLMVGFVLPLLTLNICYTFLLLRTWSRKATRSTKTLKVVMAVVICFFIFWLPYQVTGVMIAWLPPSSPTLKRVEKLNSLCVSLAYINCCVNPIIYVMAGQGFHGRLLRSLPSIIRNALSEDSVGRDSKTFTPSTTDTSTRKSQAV
Description: C5a is a potent chemokine, inducing polymorphic nucleated granulocyte (neutrophils) and monocyte/macrophage chemotaxis. In the Reverse Passive Arthus Reaction model in mice, an immune complex peritonitis is induced by the intravenous administration of ovalbumin followed by intraperitoneal administration of an anti-ovalbumin antiserum, which leads to the formation of antigen-antibody complexes and subsequent activation of the complement system, including generation of C5a [Heller et al., 1999]. (Heller et al (1999) J Immunol 163; 985-994).

[2] = target: T2, C5aR (Mus musculus, UniProt P30993); assay: Allogenic kidney transplantation model (ischemia reperfusion injury); format: in vivo, mice
T2 construct: from tissue; host or cells: live mice (kidney allograft recipients, in vivo)
T2 sequence (P30993 1-351): T1 sequence (P30993 1-351)
Description: (Arumugam, T. V., Shiels I. A., Strachan, A. J., et al (2003) A small molecule C5a receptor antagonist protects kidneys from ischemia/reperfusion injury in rats. Kidney Int 63; 134-142, De Vries B, Matthijsen R A, Wolfs T G et al (2003a) Inhibition of complement factor C5 protects against renal ischemia-reperfusion injury: inhibition of late apoptosis and inflammation Transplantation 75; 375-382, De Vries B, Kohl J, Leclercq W K et al (2003b) Complement factor C5a mediates renal ischemia-reperfusion injury independent of neutrophils. J Immunol 170; 3883-3889.) JPE1375 liquid formulation is active in an allogenic transplantation model in mice. In this model rejection of the transplant is based on an ischemia reperfusion injury with measures of animal/graft survival and renal function. Blockade of C5aR with JPE1375 liquid formulation after transplantation prolonged survival of the animals from days to greater than 12 weeks compared to controls. C5aR blockade with JPE1375 microparticle sustained release formulation is expected to provide similar benefit after a single dose.

## Hoo-Phe-Orn-Pro-hle-Pff-Phe-NH2 [JPE1375]
[1]
  inhibition of C5a receptor mediated chemotaxis: high in vivo potency
[2]; after transplantation, prolonged from days, compared to controls
  survival of the animals: greater than 12 weeks
[2]; liquid formulation
  activity in allogenic transplantation model: active

— patent US20120244192A1, “SUSTAINED RELEASE FORMULATIONS OF PEPTIDOMIMETIC DRUGS AND USES THEREOF” (priority 2009, published 2012)
